Our source for the IC50 and melting point values is patent US7323474B2, “Pyridine derivatives inhibiting angiogenesis and/or VEGF receptor tyrosine kinase” (Novartis AG, priority 2000, dated 2008).

Each structure is given as a SMILES string. pIC50: −log10 of the molar value.

Data set [1] has as its target T1, KDR VEGF-receptor tyrosine kinase (Homo sapiens, UniProt P35968).
T1 construct: instead of the Flt-1 kinase domain, the KDR kinase domain
Kind of data set: Test for activity against KDR VEGF-receptor tyrosine kinase. It counts as biochemical. The note with it: KDR kinase domain; poly(Glu,Tyr) 4:1 8 μg/ml, 8 μM [33P]-ATP, 10 minutes at room temperature. How it is done:
Test for activity against VEGF-receptor tyrosine kinase: the test is conducted using Flt-1 VEGF-receptor tyrosine kinase. The detailed procedure is as follows: 30 μl kinase solution (kinase domain of Flt-1, Shibuya et al., Oncogene 5, 519-24 [1990], according to the specific activity, in order to achieve an activity of 4000-6000 counts per minute [cpm] in the sample without inhibitor) in 20 mM Tris.HCl pH 7.5, 3 mM manganese dichloride (MnCl2), 3 mM magnesium chloride (MgCl2) and 3 μg/ml poly(Glu,Tyr) 4:1 (Sigma, Buchs, Switzerland), 8 μM [^33P]-ATP (0.2 μCi/batch), 1% dimethyl sulfoxide, and 0 to 50 μM of the compound to be tested are Incubated together for 10 minutes at room temperature. The reaction is then ended by the addition of 10 μl 0.25 M ethylenediaminetetraacetate (EDTA) pH 7. Using a multichannel dispenser (LAB SYSTEMS, USA), an aliquot of 20 μl is applied to a PVDF (=polyvinyl difluoride) Immobilon P membrane (Millipore, USA), which is incorporated into a Millipore microtitre filter manifold, and connected to a vacuum. Following complete elimination of the liquid, the membrane is washed 4 times successively in a bath containing 0.5% phosphoric acid (H3PO4), incubated for 10 minutes each time while shaking, then mounted in a Hewlett Packard TopCount Manifold and the radioactivity measured after the addition of 10 μl Microscint® (β-scintillation counter liquid; Packard USA). IC50-values are determined by linear regression analysis of the percentages for the inhibition of each compound in three concentrations (as a rule 0.01, 0.1, and 1 μM). Inhibition values (IC50 50% inhibition of activity compared with the control without an inhibitor of formula I) in the range of 5 nM to 1 μM, especially In the range of 5 nM to 500 nM are found.
Analogously to the above test, the efficacy of the compounds according to the invention as inhibitors of VEGF activity can be tested using the VEGF receptor tyrokinase KDR. In this test, instead of the Flt-1 kinase domain, the KDR kinase domain (Parast et al., Biochemistry 37 (47), 16788-801 (1998)) is used. The only difference in carrying out this test from the above test lies in the concentration of poly(Glu,Tyr) 4:1 (8 μg/ml), MnCl2 (1 mM) and MgCl2 (10 mM).
Test for activity against KDR VEGF-receptor tyrosine kinase The test is conducted using KDR VEGF-receptor tyrosine kinase, as described hereinabove. The IC50 values determined are given below, insofar as they have been accurately recorded: […]

The target of data set [2] is T2, human VEGF receptor (KDR) (Homo sapiens, UniProt P35968).
T2 construct: expressed in transfected cells; host or cells: CHO cells (stably transfected)
Description: Test for activity against VEGF-induced KDR phosphorylation (transfected CHO cells, sandwich ELISA). The class given is cell-based. The note with it: 2 h compound, then VEGF 20 ng/ml for 5 min, % inhibition of VEGF-induced KDR phosphorylation, read-out: ED50 (the source's name). As to the method: Using a further cellular in vitro experiment, the inhibition of the VEGF-induced KDR autophosphorylation can be confirmed: Transfected CHO cells, which permanently express human VEGF receptor (KDR), are seeded in culture medium (with 10% fetal calf serum=FCS) in 6-well cell culture plates and incubated at 37° C., 5% CO2 until they are approximately 80% confluent. The compounds to be tested are then diluted in culture medium (without FCS, with 0.1% bovine serum albumin=BSA) and added to the cells. (Controls receive medium without test compounds). After incubation for two hours at 37° C., recombinant VEGF is added; the final VEGF concentration is 20 ng/ml. After incubating for a further five minutes at 37° C., the cells are washed twice with ice-cold PBS (phosphate-buffered physiological saline) and immediately lysed in 100 μl lysis buffer per well. The lysates are then centrifuged to remove the cell nuclei, and the protein concentrations of the supematants are determined by a commercial protein assay (BIORAD). The lysates can then be either further used immediately or stored at −20° C. if required. To determine the KDR phosphorylation, a “sandwich ELISA” is carried out. A monoclonal antibody to KDR (for example Mab 1495.12.14; prepared by H. Towbin) is immobilised on black ELISA plates (OptiPlate™ HTRF-96 by Packard). Subsequently, the plates are washed and any remaining free protein binding sites are neutralised with 1% BSA in PBS. The cell lysates (20 μg protein per well) are then incubated over night at 4° C. together with an anti-phosphotyrosin antibody, which is coupled with alkaline phosphatase (PY20:AP from Transduction Laboratories). […] Luminescence is measured in a Packard Top Count Microplate Scintillation Counter (Top Count). The difference between the signal from the positive control (stimulated with VEGF) and that from the negative control (not stimulated with VEGF) corresponds to the VEGF-induced KDR phosphorylation (=100%). The activity of the tested substances is calculated as % inhibition of the VEGF-induced KDR phosphorylation, whereby the concentration of a substance which effects semi-maximum inhibition is called ED50 (effective dose for 50% inhibition). […] Test for activity against VEGF-Induced KDR phosphorylation The cellular in vitro test is carried out using VEGF and KDR-transfected cells, as described above. The ED50 values determined are given below, insofar as they have been accurately recorded: […]

T1 sequence (P35968 834-1162 limits assumed): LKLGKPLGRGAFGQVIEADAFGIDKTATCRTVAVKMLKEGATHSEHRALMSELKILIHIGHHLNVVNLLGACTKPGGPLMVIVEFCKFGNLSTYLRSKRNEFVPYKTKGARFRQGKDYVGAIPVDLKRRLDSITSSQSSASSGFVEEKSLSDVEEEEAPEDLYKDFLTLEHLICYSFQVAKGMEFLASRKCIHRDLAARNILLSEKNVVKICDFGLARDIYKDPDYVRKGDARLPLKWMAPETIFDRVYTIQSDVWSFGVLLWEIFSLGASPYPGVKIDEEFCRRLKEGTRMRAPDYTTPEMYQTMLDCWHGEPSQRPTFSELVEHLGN
T2 sequence (P35968 20-1356): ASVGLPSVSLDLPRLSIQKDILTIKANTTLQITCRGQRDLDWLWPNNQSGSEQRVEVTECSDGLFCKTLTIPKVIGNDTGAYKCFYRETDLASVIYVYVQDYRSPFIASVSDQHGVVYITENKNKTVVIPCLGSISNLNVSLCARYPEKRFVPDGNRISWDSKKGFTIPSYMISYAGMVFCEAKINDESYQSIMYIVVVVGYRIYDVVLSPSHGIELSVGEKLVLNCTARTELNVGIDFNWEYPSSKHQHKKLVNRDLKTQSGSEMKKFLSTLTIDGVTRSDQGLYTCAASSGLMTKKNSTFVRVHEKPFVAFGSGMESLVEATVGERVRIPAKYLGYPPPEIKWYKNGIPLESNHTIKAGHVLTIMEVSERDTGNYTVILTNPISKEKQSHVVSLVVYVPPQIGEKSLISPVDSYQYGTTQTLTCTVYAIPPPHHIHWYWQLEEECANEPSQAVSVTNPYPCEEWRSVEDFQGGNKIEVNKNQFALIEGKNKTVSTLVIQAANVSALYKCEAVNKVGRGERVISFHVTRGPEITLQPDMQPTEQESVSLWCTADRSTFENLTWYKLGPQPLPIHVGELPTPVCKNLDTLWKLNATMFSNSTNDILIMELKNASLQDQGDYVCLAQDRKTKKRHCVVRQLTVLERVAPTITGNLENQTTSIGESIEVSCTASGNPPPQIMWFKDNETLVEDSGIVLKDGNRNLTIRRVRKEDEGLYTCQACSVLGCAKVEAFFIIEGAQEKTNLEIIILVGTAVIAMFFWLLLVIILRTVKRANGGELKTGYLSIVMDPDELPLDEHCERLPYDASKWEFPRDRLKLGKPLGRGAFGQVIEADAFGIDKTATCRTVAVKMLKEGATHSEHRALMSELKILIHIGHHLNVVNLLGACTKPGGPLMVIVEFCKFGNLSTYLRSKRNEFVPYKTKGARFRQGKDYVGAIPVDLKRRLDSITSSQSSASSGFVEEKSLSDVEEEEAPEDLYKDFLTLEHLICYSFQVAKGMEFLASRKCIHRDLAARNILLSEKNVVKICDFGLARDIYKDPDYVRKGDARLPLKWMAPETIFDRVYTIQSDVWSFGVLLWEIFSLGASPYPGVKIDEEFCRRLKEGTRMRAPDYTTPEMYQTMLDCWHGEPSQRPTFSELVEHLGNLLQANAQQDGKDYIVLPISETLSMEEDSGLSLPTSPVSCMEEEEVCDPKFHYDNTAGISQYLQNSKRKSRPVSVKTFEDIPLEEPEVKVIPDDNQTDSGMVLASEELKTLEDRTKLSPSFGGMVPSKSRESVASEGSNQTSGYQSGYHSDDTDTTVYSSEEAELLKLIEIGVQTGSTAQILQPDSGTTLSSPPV

`CC(C)(C)[C@H]1CC[C@H](Nc2ncc(CCc3cccnc3)c3ccccc23)CC1` [16 (E isomer), trans 1-(4-tert-butyl-cyclohexylamino)-4-[2-(pyridin-3-yl)-ethyl]-isoquinoline] had a melting point of 124 to 125 °C. In data set [1], this compound gave a pIC50 of 6.71.
As to `CC(C)[C@H]1CC[C@H](Nc2ncc(Cc3ccc(O)nc3)c3ccccc23)CC1` [29 (E isomer), trans 1-(4-isopropyl-cyclohexylamino)-4-[(6-hydroxy-pyridin-3-yl)-methyl]-isoquinoline], the pIC50 in data set [1] is 7.06.
`Clc1ccc(Nc2ncc(CCc3cccnc3)c3ccccc23)cc1` [Example 1, 1-(4chloroanilino)-4-[2-(pyridin-3-yl)-ethyl]-isoquinoline] came in with a melting point of 157 to 158 °C. In data set [1], this compound showed a pIC50 of 6.98.
The compound `Cc1ccc(Nc2ncc(/C=C\c3cccnc3)c3ccccc23)cc1Br` [Example 2, (Z) 1-(3-bromo-4-methylanilino)-4-[2-(pyridin-3-yl)-vinyl]-isoquinoline] had a pIC50 in data set [1] of 7.31.
Consider `Cc1ccc(Nc2ncc(/C=C/c3cccnc3)c3ccccc23)cc1Br` [Example 3, (E) 1-(3-bromo-4-methylanilino)-4-[2-(pyridin-3-yl)-vinyl]-isoquinoline], for which the melting point lay within 196 to 197 °C. In data set [1], the pIC50 was 6.91.
`CC(C)(C)c1ccc(Nc2ncc(CCc3cccnc3)c3ccccc23)cc1` [Example 5]: the melting point is 81 °C. In data set [1], the pIC50 was 7.60. Further, the pIC50 in data set [2] was 8.00.
Turning to `Nc1cc(Cl)cc(C(F)(F)F)c1` [Example 7, 5-amino-3-chloro-benzotrifluoride], the pIC50 in data set [1] is 6.73.
On to `Cc1cc(Nc2ncc(CCc3cccnc3)c3ccccc23)ccc1C(C)C` [Example 8], for which the melting point was 133 to 134 °C. The same compound showed a pIC50 in data set [1] of 7.57. For the same compound, the pIC50 in data set [2] is 7.96.
Take `CCc1ccc(Nc2ncc(CCc3cccnc3)c3ccccc23)cc1Br` [Example 9, 1-(3-bromo-4ethylanilino)-4-[2-(pyridin-3-yl)-ethyl]-isoquinoline]: the melting point was found to be 119 °C. This compound also gave a pIC50 in data set [1] of 8.40. The pIC50 in data set [2] was 7.04.
`CC(C)(C)c1cccc(Nc2ncc(CCc3cccnc3)c3ccccc23)c1` [Example 10] returned a melting point of 133 to 134 °C. The compound also showed a pIC50 in data set [1] of 7.48.
Regarding `FC(F)(F)c1ccc(Nc2ncc(CCc3cccnc3)c3ccccc23)cc1C(F)(F)F` [Example 11], the melting point was in the range of 124 to 125 °C. In addition, the pIC50 in data set [1] is 7.39.
On the same counts, the results for `FC(F)(F)c1cc(Nc2ncc(CCc3cccnc3)c3ccccc23)cc(C(F)(F)F)c1` [Example 12] are 174 °C and 6.72.
`FC(F)(F)c1cc(Nc2ncc(CCc3cccnc3)c3ccccc23)ccc1Cl` [Example 13] had a melting point of 159 °C. This compound gave a pIC50 in data set [1] of 7.28.
`Cc1ccc(CCc2cnc(N[C@H]3CC[C@H](C(C)C)CC3)c3ccccc23)cn1` [Example 19, trans 1-(4-isopropyl-cyclohexylamino)-4-[2-(6-methyl-pyridin-3-yl)-ethyl]-isoquinoline] gave a pIC50 in data set [1] of 6.90.
The same measure, in the same setting: then `Cc1ccc(CCc2cnc(Nc3ccc(C(C)C)c(C)c3)c3ccccc23)cn1` [Example 20], with 7.32.
In turn, `CCc1ccc(Nc2ncc(CCc3ccc(C)nc3)c3ccccc23)cc1Br` [Example 21] gave a melting point of 103 to 105 °C. Besides, the pIC50 in data set [1] was 7.82.
Regarding `COc1ccc(Cc2cnc(Nc3ccc(C(C)(C)C)cc3)c3ccccc23)cn1` [Example 33e, 1-[4-(tert-butyl)-anilino]-4-[(6-methoxy-pyridin-3yl)-methyl]-isoquinoline], the pIC50 in data set [2] was 7.55.
On the same count and under the same terms, then `CC(C)(C)c1ccc(Nc2ncc(Cc3ccc(O)nc3)c3ccccc23)cc1` [Example 34e, 1-[4-(tert-butyl)-anilino]4-[(6-hydroxy-pyridin-3-yl)-methyl]-isoquinoline], with 7.72.
In the case of `CCc1ccc(Nc2ncc(Cc3ccc(O)nc3)c3ccccc23)cc1Br` [Example 34g, 1-(3-bromo-4-ethylanilino]-4-[(6-hydroxy-pyridin-3-yl)-methyl]-isoquinoline], the pIC50 in data set [1] was 6.86; in data set [2] it was 7.54.
The compound `CCc1ccc(Nc2ncc(Cc3ccc(OC)nc3)c3ncccc23)cc1Br` [Example 37a, 5-(3-bromo-4-ethyl-anilino)-8-[(6-methoxy-pyridin-3-yl)-methyl]-[1,6]naphthyridine] returned a melting point of 142 to 146 °C.
For `CCc1ccc(Nc2ncc(Cc3ccc(O)nc3)c3ncccc23)cc1Br` [Example 37b, 5-(3-bromo-4-ethyl-anilino)-8-[(6-hydroxy-pyridin-3-yl)-methyl]-[1,6]naphthyridine], the pIC50 in data set [1] was 7.04.
In the case of `CC(C)[C@H]1CC[C@H](Nc2ncc(Cc3ccc(O)nc3)c3ncccc23)CC1` [Example 39, trans 5-(4-isopropyl-cyclohexylamino)-8-[(6-hydroxy-pyridin-3-yl)-methyl]-[1,6]naphthyridine], the melting point was in the range of 232 to 235 °C.
`COc1ccc(Cc2cnc(Nc3ccc(C(C)(C)C)cc3)c3cccnc23)cn1` [Example 40e, 5-[4-(tert-butyl)-anilino]-8-[(6-methoxy-pyridin-3-yl)-methyl]-[1,6]naphthyridine]: the pIC50 is 7.09 in data set [1] and 7.28 in data set [2].
With `CC(C)(C)c1ccc(Nc2ncc(Cc3ccc(O)nc3)c3ncccc23)cc1` [Example 41e, 5-[4-(tert-butyl)-anilino]-8-[(6-hydroxy-pyridin-3-yl)-methyl]-[1,6]naphthyridine], the pIC50 in data set [2] is 7.66.
The compound `Cc1nc(Nc2cccc(C(F)(F)F)c2)c2ccccc2c1Cc1ccc(Cl)nc1` [Example 45a, 1-(3-trifluoromethyl-anilino)-4-[(6-chloro-pyridin-3-yl)-methyl]-3-methylisoquinoline] had a melting point of 137 °C.
